Test results as given in US9174974B2, “Macrocyclic factor VIIa inhibitors” (BRISTOL-MYERS SQUIBB COMPANY, priority 2012, dated 2015).
Where two headings read alike, the source gives them in different places.

Tests used:
tissue kallikrein (HK1) = tissue kallikrein (HK1) (Homo sapiens (Human), UniProt P06870); assay: Tissue kallikrein-1 (HK1) Ki, fluorogenic substrate assay; type: biochemical; settings: 37° C.
human FVIIa = human FVIIa (Homo sapiens (Human), UniProt P08709); assay: FVIIa Ki (37° C.), FVIIa-Xase assay; type: biochemical; settings: for Ki(HK1)/Ki(FVIIa): selectivity ratio, tissue kallikrein (HK1) vs FVIIa
Sequence of human FVIIa (P08709 61-212): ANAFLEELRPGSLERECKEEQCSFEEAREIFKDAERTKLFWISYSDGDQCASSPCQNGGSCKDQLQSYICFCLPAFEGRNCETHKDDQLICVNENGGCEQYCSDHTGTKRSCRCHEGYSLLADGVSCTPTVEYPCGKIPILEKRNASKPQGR
Sequence of human FVIIa (P08709 213-466): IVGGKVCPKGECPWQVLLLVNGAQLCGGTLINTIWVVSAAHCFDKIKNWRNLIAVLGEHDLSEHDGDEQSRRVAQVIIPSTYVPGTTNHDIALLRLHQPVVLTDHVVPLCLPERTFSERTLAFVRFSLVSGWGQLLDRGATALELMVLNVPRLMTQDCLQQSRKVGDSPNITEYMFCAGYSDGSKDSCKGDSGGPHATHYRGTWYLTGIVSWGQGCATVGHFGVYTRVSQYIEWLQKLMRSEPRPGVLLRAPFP
Sequence of human FVIIa (P13726 33-295 partner): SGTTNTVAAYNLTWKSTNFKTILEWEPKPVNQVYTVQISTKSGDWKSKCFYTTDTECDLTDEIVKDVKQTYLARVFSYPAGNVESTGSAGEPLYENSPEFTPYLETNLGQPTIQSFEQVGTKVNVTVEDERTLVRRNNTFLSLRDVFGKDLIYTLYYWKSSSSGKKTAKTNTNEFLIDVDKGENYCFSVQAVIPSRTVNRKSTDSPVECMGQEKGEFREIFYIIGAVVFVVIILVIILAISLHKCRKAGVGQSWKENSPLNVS

Sequence of tissue kallikrein (HK1) (P06870 25-262): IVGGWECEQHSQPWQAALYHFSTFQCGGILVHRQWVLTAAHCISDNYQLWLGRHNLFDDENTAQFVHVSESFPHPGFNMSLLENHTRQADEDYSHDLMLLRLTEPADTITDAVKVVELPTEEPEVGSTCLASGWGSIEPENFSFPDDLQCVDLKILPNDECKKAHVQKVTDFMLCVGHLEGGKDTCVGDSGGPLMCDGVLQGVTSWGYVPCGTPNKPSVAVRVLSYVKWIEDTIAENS

| SMILES | Ki (tissue kallikrein (HK1)) [nM] | Ki (human FVIIa) [nM] | Ki(HK1)/Ki(FVIIa) (human FVIIa) | Ki (human FVIIa; read-out: FVIIa Ki, nM 37° C.) [nM] |
| --- | --- | --- | --- | --- |
| Cc1cc2ccc1[C@@H](C)COC(=O)Nc1cc(F)c(OCC3(C#N)CC3)c(c1)CN(C)C(=O)[C@@H]2Nc1ccc2c(N)nccc2c1.O=C(O)C(F)(F)F [Example 18, 1-({[(2R,15R)-2-[(1-Aminoisoquinolin-6-yl)amino]-8-fluoro-4,15,20-trimethyl-3,12-dioxo-13-oxa-4,11-diazatricyclo[14.2.2.1^6,10]henicosa-1(18),6,8,10 (21),16,19-hexaen-7-yl]oxy}methyl)cyclopropane-1-carbonitrile; trifluoroacetic acid] | 490 | 0.44 | 1114 |  |
| Cc1cc2ccc1[C@@H](C)COC(=O)Nc1cc(F)c(S(=O)(=O)C(C)C)c(c1)CN(C)C(=O)[C@@H]2Nc1cc(F)c2c(N)nccc2c1.O=C(O)C(F)(F)F [Example 20, (2R,15R)-2-[(1-Amino-8-fluoroisoquinolin-6-yl)amino]-8-fluoro-4,15,17-trimethyl-7-(propane-2-sulfonyl)-13-oxa-4,11-diazatricyclo[14.2.2.1^6,10]henicosa-1(18),6,8,10 (21),16,19-hexaene-3,12-dione; trifluoroacetic acid] | 120 |  | 333 | 0.36 |
| CCN(Cc1nccs1)C(=O)c1ccc2cc1CN(C)C(=O)[C@H](Nc1ccc3c(N)nccc3c1)c1ccc(c(C)c1)[C@@H](C)COC(=O)N2.O=C(O)C(F)(F)F [Example 23, (2R,15R)-2-[(1-Aminoisoquinolin-6-yl)amino]-N-ethyl-4,15,17-trimethyl-3,12-dioxo-N-(1,3-thiazol-2-ylmethyl)-13-oxa-4,11-diazatricyclo[14.2.2.1^6,10]henicosa-1(18),6,8,10 (21),16,19-hexaene-7-carboxamide; trifluoroacetic acid] | 330 |  | 1100 | 0.3 |
| COc1cc2c(F)cc1[C@@H](C)COC(=O)Nc1ccc(S(=O)(=O)C3CC3)c(c1)CN(C)C(=O)[C@@H]2Nc1cc2ccnc(N)c2cc1F.O=C(O)C(F)(F)F [Example 25, (2R,15R)-2-[(1-Amino-7-fluoroisoquinolin-6-yl)amino]-7-(cyclopropanesulfonyl)-18-fluoro-20-methoxy-4,15-dimethyl-13-oxa-4,11-diazatricyclo[14.2.2.1^6,10]henicosa-1(18),6,8,10 (21),16,19-hexaene-3,12-dione; trifluoroacetic acid] | 270 |  | 1080 | 0.25 |
| Cc1cc2ccc1[C@@H](C)COC(=O)Nc1cc(F)c(O[C@@H]3COC[C@@H]3O)c(c1)CN(C)C(=O)[C@@H]2Nc1ccc2c(N)nccc2c1.O=C(O)C(F)(F)F [Example 27, (2R,15R)-2-[(1-Aminoisoquinolin-6-yl)amino]-8-fluoro-7-{[(3R,4S)-4-hydroxyoxolan-3-yl]oxy}-4,15,17-trimethyl-13-oxa-4,11-diazatricyclo[14.2.2.1^6,10]henicosa-1(18),6,8,10 (21),16,19-hexaene-3,12-dione; trifluoroacetic acid] | 320 |  | 1391 | 0.23 |
| COCCCOc1c(F)cc2cc1CN(C)C(=O)[C@H](Nc1ccc3c(N)nccc3c1)c1ccc(c(C)c1)[C@@H](C)COC(=O)N2.O=C(O)C(F)(F)F [Example 28, (2R,15R)-2-[(1-Aminoisoquinolin-6-yl)amino]-8-fluoro-7-(3-methoxypropoxy)-4,15,20-trimethyl-13-oxa-4,11-diazatricyclo[14.2.2.1^6,10]henicosa-1(18),6,8,10 (21),16,19-hexaene-3,12-dione; trifluoroacetic acid] | 290 |  | 1450 | 0.2 |
| Cc1cc2ccc1[C@@H](C)COC(=O)Nc1cc(F)c(S(=O)(=O)C3CC3)c(c1)CN(C)C(=O)[C@@H]2Nc1cc2ccnc(N)c2cc1F.O=C(O)C(F)(F)F [Example 29, (2R,15R)-2-[(1-Amino-7-fluoroisoquinolin-6-yl)amino]-7-(cyclopropanesulfonyl)-8-fluoro-4,15,17-trimethyl-13-oxa-4,11-diazatricyclo[14.2.2.1^6,10]henicosa-1(18),6,8,10 (21),16,19-hexaene-3,12-dione; trifluoroacetic acid] | 750 |  | 4412 | 0.17 |
| Cc1cc2ccc1[C@@H](C)COC(=O)Nc1cc(F)c(O[C@H](C)CO)c(c1)CN(C)C(=O)[C@@H]2Nc1ccc2c(N)nccc2c1.O=C(O)C(F)(F)F [Example 30, (2R,15R)-2-[(1-Aminoisoquinolin-6-yl)amino]-8-fluoro-7-{[(2R)-1-hydroxypropan-2-yl]oxy}-4,15,20-trimethyl-13-oxa-4,11-diazatricyclo[14.2.2.16,10]henicosa-1(18),6,8,10 (21),16,19-hexaene-3,12-dione; trifluoroacetic acid] | 70 |  | 412 | 0.17 |
| Cc1cc2ccc1[C@@H](C)COC(=O)Nc1cc(F)c(OC(CF)CF)c(c1)CN(C)C(=O)[C@@H]2Nc1ccc2c(N)nccc2c1.O=C(O)C(F)(F)F [Example 32, (2R,15R)-2-[(1-Aminoisoquinolin-6-yl)amino]-7-[(1,3-difluoropropan-2-yl)oxy]-8-fluoro-4,15,20-trimethyl-13-oxa-4,11-diazatricyclo[14.2.2.1^6,10]henicosa-1(18),6,8,10 (21),16,19-hexaene-3,12-dione; trifluoroacetic acid] | 41 |  | 273 | 0.15 |
| Cc1cc2ccc1[C@@H](C)COC(=O)Nc1cc(F)c(O[C@@H](C)CO)c(c1)CN(C)C(=O)[C@@H]2Nc1ccc2c(N)nccc2c1.O=C(O)C(F)(F)F [Example 33, (2R,15R)-2-[(1-Aminoisoquinolin-6-yl)amino]-8-fluoro-7-{[(2S)-1-hydroxypropan-2-yl]oxy}-4,15,20-trimethyl-13-oxa-4,11-diazatricyclo[14.2.2.16,10]henicosa-1(18),6,8,10 (21),16,19-hexaene-3,12-dione; trifluoroacetic acid] | 50 |  | 357 | 0.14 |
| Cc1cc2ccc1[C@@H](C)COC(=O)Nc1cc(F)c(S(=O)(=O)C(C)C)c(c1)CN(C)C(=O)[C@@H]2Nc1cc2ccnc(N)c2cc1F.O=C(O)C(F)(F)F [Example 34, (2R,15R)-2-[(1-Amino-7-fluoroisoquinolin-6-yl)amino]-8-fluoro-4,15,17-trimethyl-7-(propane-2-sulfonyl)-13-oxa-4,11-diazatricyclo[14.2.2.1^6,10]henicosa-1(18),6,8,10 (21),16,19-hexaene-3,12-dione; trifluoroacetic acid] | 2100 |  | 15000 | 0.14 |
| Cc1cc2ccc1[C@@H](C)COC(=O)Nc1cc(F)c(OCCN3CCCC3=O)c(c1)CN(C)C(=O)[C@@H]2Nc1ccc2c(N)nccc2c1.O=C(O)C(F)(F)F [Example 35, (2R,15R)-2-[(1-Aminoisoquinolin-6-yl)amino]-8-fluoro-4,15,20-trimethyl-7-[2-(2-oxopyrrolidin-1-yl)ethoxy]-13-oxa-4,11-diazatricyclo[14.2.2.16,10]henicosa-1(18),6,8,10 (21),16,19-hexaene-3,12-dione; trifluoroacetic acid] | 210 |  | 1500 | 0.14 |
| Cc1cc2ccc1[C@@H](C)COC(=O)Nc1ccc(C3(c4nnn[nH]4)CC3)c(c1)CN(C)C(=O)[C@@H]2Nc1ccc2c(N)nccc2c1.O=C(O)C(F)(F)F [Example 36, (2R,15R)-2-[(1-Aminoisoquinolin-6-yl)amino]-4,15,20-trimethyl-7-[1-(1H-1,2,3,4-tetrazol-5-yl)cyclopropyl]-13-oxa-4,11-diazatricyclo[14.2.2.1^6,10]henicosa-1(18),6,8,10 (21),16,19-hexaene-3,12-dione; trifluoroacetic acid] | 230 |  | 1917 | 0.12 |
| COC[C@H](C)Oc1c(F)cc2cc1CN(C)C(=O)[C@H](Nc1ccc3c(N)nccc3c1)c1ccc(c(C)c1)[C@@H](C)COC(=O)N2.O=C(O)C(F)(F)F [Example 37, (2R,15R)-2-[(1-Aminoisoquinolin-6-yl)amino]-8-fluoro-7-{[(2S)-1-methoxypropan-2-yl]oxy}-4,15,20-trimethyl-13-oxa-4,11-diazatricyclo[14.2.2.1^6,10]henicosa-1(18),6,8,10 (21),16,19-hexaene-3,12-dione; trifluoroacetic acid] | 190 |  | 1357 | 0.14 |
| Cc1cc2ccc1[C@@H](C)COC(=O)Nc1cc(F)c(O[C@@H]3CCOC3)c(c1)CN(C)C(=O)[C@@H]2Nc1ccc2c(N)nccc2c1.O=C(O)C(F)(F)F [Example 38, (2R,15R)-2-[(1-Aminoisoquinolin-6-yl)amino]-8-fluoro-4,15,20-trimethyl-7-[(3R)-oxolan-3-yloxy]-13-oxa-4,11-diazatricyclo[14.2.2.1^6,10]henicosa-1(18),6,8,10 (21),16,19-hexaene-3,12-dione; trifluoroacetic acid] | 290 |  | 5800 | 0.05 |
| Cc1cc2ccc1[C@@H](C)COC(=O)Nc1cc(F)c(O[C@H]3CCOC3)c(c1)CN(C)C(=O)C2Nc1ccc2c(N)nccc2c1.O=C(O)C(F)(F)F (stereo partly drawn) [Example 39, (15R)-2-[(1-Aminoisoquinolin-6-yl)amino]-8-fluoro-4,15,20-trimethyl-7-[(3S)-oxolan-3-yloxy]-13-oxa-4,11-diazatricyclo[14.2.2.1^6,10]henicosa-1(18),6,8,10 (21),16,19-hexaene-3,12-dione; trifluoroacetic acid] | 100 |  | 5000 | 0.02 |
